Laboratory results published in US20090088403A1, “A3 ADENOSINE RECEPTORS AS TARGETS FOR THE MODULATION OF CENTRAL SEROTONERGIC SIGNALING” (priority 2007, published 2009).

Key:
Type in all cases: cell-based
dopamine transporter = experiment: [3H]DA uptake in mouse striatal and midbrain synaptosomes; conditions: 10 min
SERT = experiment: [3H]5-HT transport assay in mouse brain synaptosomes; conditions: for effect on IB-MECA (10 nM) stimulated 5-HT uptake: inhibitor 10 min before IB-MECA, MRS1191 1 μM, DT-2 1.0 μM, H8 0.1 μM, SB203580 1.0 μM
GABA transport activity = experiment: [3H]GABA uptake in mouse striatal and midbrain synaptosomes; conditions: 10 min
[1] = midbrain synaptosomes, IB-MECA 10 nM 10 min, MRS1191 1 μM 10 min before IB-MECA, Michaelis-Menten fit, mean (n=3) ±SEM

With “N6-(3-iodobenzyl)-N-methyl-5′carbamoyladenosine [IB-MECA]” the “effect on DA uptake” value (dopamine transporter) was “no stimulation”, the “increase in 5-HT transport” value (SERT; midbrain and hippocampal synaptosomes of A3AR+/+ mice, 10 nM, 10 min) was 40-50% and the “stimulation of SERT activity in A3AR−/− mice” value (SERT; midbrain and hippocampal synaptosomes of A3AR−/− mice, 10 nM, 10 min) was “failed to stimulate SERT activity”. For the same molecule, the “effect on SERT Vmax for 5-HT” value (SERT; midbrain synaptosomes, 10 nM) was “significantly increased the SERT Vmax for 5-HT”, the “5-HT transport at peak stimulation” value (SERT; midbrain synaptosomes, 10 nM, 10 min pretreatment) was 130-150 % of control levels and the “time at which stimulation of 5-HT uptake reached a maximum” value (SERT; midbrain synaptosomes, 10 nM, post-treatment) was 10 to 20 min. The “concentration at which stimulation of 5-HT transport peaked” value (SERT; midbrain synaptosomes, 10 min pretreatment) was 10 nM, the Km (SERT; [1]) was 0.8 µM and the Vmax (SERT; [1]) was 2544+/−281 fmol/mg protein/min. The “effect on 5-HT uptake at high concentration” value (SERT; midbrain synaptosomes, exceeding 100 μM, data not shown) was “induced a decrease in 5-HT uptake”, the “SERT activity in striatal synaptosomes” value (SERT; striatal synaptosomes, 10 min) was “IB-MECA-insensitive SERT activity” and the “concentration window for stimulation of 5-HT transport” value (SERT; synaptosomes, for 20 min) was 10 to 30 nM. The “effect on GABA uptake” value (GABA transport activity) was “no stimulation”.

For CCOC(=O)C1=C(C)NC(c2ccccc2)=C(C(=O)OCc2ccccc2)C1C#Cc1ccccc1 (racemic) [MRS1191, 3-ethyl-5-benzyl-2-methyl-phenylethynyl-6-phenyl-1,4(±)dihydropyridine-3,5-dicarboxylate], the “effect on IB-MECA (10 nM) stimulated 5-HT uptake” value (SERT; midbrain synaptosomes) was “prevented the stimulatory actions of IB-MECA on 5-HT uptake” and the “effect alone on basal 5-HT transport” value (SERT; synaptosomes, 0.01-100 μM, data not shown) was “did not influence basal 5-HT transport”.

In the case of CCNC(=O)C1OC(n2cnc3c(N)ncnc32)C(O)C1O (stereo not shown) [NECA, 5′-N-ethyl-carboxamidoadenosine], the “effect on SERT activity” value (SERT; midbrain synaptosomes, 10 min at 37° C.) is reported as “fails to stimulate SERT activity” and the “effect on 5-HT transport at high concentration” value (SERT; midbrain synaptosomes, concentrations above 1 μM) is reported as “inhibited 5-HT transport”.

In the case of CNCCNS(=O)(=O)c1cccc2cnccc12 [H8, N-[2-(methylamino)ethy]-5-isoquinoline-sulfonamide], the “effect on IB-MECA (10 nM) stimulated 5-HT uptake” value (SERT; midbrain synaptosomes) is reported as “blocked IB-MECA regulation of SERT”.

C[C@H](Cc1ccccc1)Nc1ncnc2c1ncn2[C@@H]1O[C@H](CO)[C@@H](O)[C@H]1O [R-PIA, (R)—N^6-phenylisopropyladenosine] was tested, and the “impact on 5-HT transport” value (SERT; midbrain synaptosomes, 1~1000 nM, 10 min at 37° C.) was “No impact”.
